Measurements reported in patent US9637516B2, “Betulinic acid proline derivatives as HIV inhibitors” (HETERO RESEARCH FOUNDATION, priority 2012, dated 2017).

Tests used:
[1] = system: HIV-1 strain 92HT599; assay: Antiviral activity: p24 estimation in MT2 cells infected with HIV-1 strain 92HT599; format: cell-based; details: for IC50: Human immunodeficiency virus 1, HIV-1 92HT599, p24; for inhibition at 0.1 µM: Human immunodeficiency virus 1, 100 nM; for inhibition at 0.1 µM / inhibition at 1 µM: HIV-1 92HT599, p24, ~96 hours; for inhibition at 1 µM: Human immunodeficiency virus 1, 1000 nM
Protocol: MT2 cells were infected with HIV-1 strain 92HT599 (10 TCID 50/30000 cells). The infected cells were plated at the concentration of ˜30 000 cells per well in 96 well plate. Test compound was added to the micro plate in defined format with the final concentration of DMSO (vehicle) is not more than 1%. Incubation was carried out in CO2 incubator for ˜96 hours for viral infection. At the end of incubation period an aliquot from each well was taken for p24 estimation. The quantitation of p24 is an index for antiviral activity of the compound. Percent inhibition was calculated with reference to control values (vehicle controls). p-24 estimation was carried out using Advance biosciences kit as per the procedure detailed by supplier.

[2] = Single dose oral pharmacokinetic study; format: in vivo, mice; details: mouse, plasma
Protocol: The test item was administered through oral route to animals (rat/mice) at 30 mg/kg dose in a suitable vehicle at 10 ml/kg dose volume. Blood samples (˜50 uL at each time point) were collected from retro-orbital plexus using K3 EDTA as anticoagulant in eppendorf tubes at defined time intervals under light ether anesthesia. The samples were centrifuged at 3500×g to separate plasma and stored at −80° C. until analysis.
Sample analysis: Test samples were analyzed using LC-MS-MS after developing fit-for-purpose method for each of test compound.

[3] = Mice oral PK @30 mg/kg (Table 3)
[4] = Mice oral PK @30 mg/kg (Table 4)

| SMILES | IC50 [1] [nM] | AUC(0-t) [2, 3] [µg·h/mL] | Cmax [2, 3] [ng/mL] | Tmax [2, 3] [h] | inhibition at 0.1 µM [1] [%] | inhibition at 1 µM [1] [%] | AUC(0-inf) [2, 4] [µg·h/mL] | AUC(0-t) [2, 4] [µg·h/mL] | Cmax [2, 4] [ng/mL] | half-life [2, 4] [h] |
| --- | --- | --- | --- | --- | --- | --- | --- | --- | --- | --- |
| C=C(C)[C@@H]1CC[C@]2(C(=O)N3CCC[C@@H]3c3nc(-c4ccccc4)no3)CC[C@]3(C)[C@H](CC[C@@H]4[C@@]5(C)CC[C@H](OC(=O)CC(C)(C)C(=O)O)C(C)(C)[C@@H]5CC[C@]43C)[C@@H]12 [Compound 1, 2,2-dimethyl-4-oxo-4-((1R,3aS,5aR,5bR,7aR,9S,11aR,11bR,13aR,13bR)-5a,5b,8,8,11a-pentamethyl-3a-((R)-2-(3-phenyl-1,2,4-oxadiazol-5-yl)pyrrolidine-1-carbonyl)-1-(prop-1-en-2-yl)icosahydro-1H-cyclopenta[a]chrysen-9-yloxy)butanoic acid] | 5.02 | 125 | 12700 | 6 |  |  |  |  |  |  |
| C=C(C)[C@@H]1CC[C@]2(C(=O)N3CCC[C@@H]3c3nc(-c4cccnc4)no3)CC[C@]3(C)[C@H](CC[C@@H]4[C@@]5(C)CC[C@H](OC(=O)CC(C)(C)CC(=O)O)C(C)(C)[C@@H]5CC[C@]43C)[C@@H]12 [Compound 4, 3,3-dimethyl-5-oxo-5-((1R,3aS,5aR,5bR,7aR,9S,11aR,11bR,13aR,13bR)-5a,5b,8,8,11a-pentamethyl-1-(prop-1-en-2-yl)-3a-((R)-2-(3-(pyridin-3-yl)-1,2,4-oxadiazol-5-yl)pyrrolidine-1-carbonyl)icosahydro-1H-cyclopenta[a]chrysen-9-yloxy)pentanoic acid] | 8.64 | 36.9 | 4830 | 2.5 | 84 | 96 |  |  |  |  |
| C=C(C)[C@@H]1CC[C@]2(C(=O)N3CCCC3c3ncc(-c4ccc(OC)cc4)[nH]3)CC[C@]3(C)[C@H](CC[C@@H]4[C@@]5(C)CC[C@H](OC(=O)[C@H]6C[C@@H](C(=O)O)C6(C)C)C(C)(C)[C@@H]5CC[C@]43C)[C@@H]12 (some centres unmarked) [Compound 15] |  |  |  |  | 98 | 97 | 446 | 286 | 11400 | 30.9 |
| C=C(C)[C@@H]1CC[C@]2(C(=O)N3CCC[C@H]3c3ncc(-c4ccc([N+](=O)[O-])cc4)[nH]3)CC[C@]3(C)[C@H](CC[C@@H]4[C@@]5(C)CC[C@H](OC(=O)[C@H]6C[C@@H](C(=O)O)C6(C)C)C(C)(C)[C@@H]5CC[C@]43C)[C@@H]12 [Compound 17] |  |  |  |  | 96 | 100 |  |  |  |  |
| C=C(C)[C@@H]1CC[C@]2(C(=O)N3CCCC3c3ncc(-c4ccc(C#N)cc4)[nH]3)CC[C@]3(C)[C@H](CC[C@@H]4[C@@]5(C)CC[C@H](OC(=O)[C@H]6C[C@@H](C(=O)O)C6(C)C)C(C)(C)[C@@H]5CC[C@]43C)[C@@H]12 (some centres unmarked) [Compound 19] |  |  |  |  | 86 | 100 |  |  |  |  |
| C=C(C)[C@@H]1CC[C@]2(C(=O)N3CCC[C@H]3c3ncc(-c4ccccc4)[nH]3)CC[C@]3(C)[C@H](CC[C@@H]4[C@@]5(C)CC[C@H](OC(=O)[C@@H]6C[C@H](C(=O)O)C6(C)C)C(C)(C)[C@@H]5CC[C@]43C)[C@@H]12 [Compound 27, (1S,3R)-2,2-dimethyl-3-((((1R,3aS,5aR,5bR,7aR,9S,11aR,11bR,13aR,13bR)-5a,5b,8,8,11a-pentamethyl-3a-((S)-2-(5-phenyl-1H-imidazol-2-yl)pyrrolidine-1-carbonyl)-1-(prop-1-en-2-yl)icosahydro-1H-cyclopenta[a]chrysen-9-yl)oxy)carbonyl)cyclobutane-1-carboxylic acid] | 11 |  |  |  |  |  | 535 | 231 | 10100 | 38.1 |
| CC(C)(CC(=O)O[C@H]1CC[C@]2(C)[C@H]3CC[C@@H]4[C@H]5[C@H](C6(C)CC6)CC[C@]5(C(=O)N5CCC[C@H]5c5ncc(-c6cccnc6)[nH]5)CC[C@@]4(C)[C@]3(C)CC[C@H]2C1(C)C)C(=O)O [Compound 30, 2,2-dimethyl-4-oxo-4-(((1R,3aS,5aR,5bR,7aR,9S,11aR,11bR,13aR,13bR)-5a,5b,8,8,11a-pentamethyl-1-(1-methylcyclopropyl)-3a-((S)-2-(5-(pyridin-3-yl)-1H-imidazol-2-yl)pyrrolidine-1-carbonyl)icosahydro-1H-cyclopenta[a]chrysen-9-yl)oxy)butanoic acid] | 3.83 |  |  |  |  |  | 57.8 | 54.6 | 6400 | 1.7 |
| CC(C)(CC(=O)O)CC(=O)O[C@H]1CC[C@]2(C)[C@H]3CC[C@@H]4[C@H]5[C@H](C6(C)CC6)CC[C@]5(C(=O)N5CCCC5c5ncc(-c6cccnc6)[nH]5)CC[C@@]4(C)[C@]3(C)CC[C@H]2C1(C)C (some centres unmarked) [Compound 31] | 1.62 |  |  |  |  |  | 145 | 136 | 9300 | 10.9 |
| CC1(C)C(C(=O)O)CC1C(=O)O[C@H]1CC[C@]2(C)[C@H]3CC[C@@H]4[C@H]5[C@H](C6(C)CC6)CC[C@]5(C(=O)N5CCC[C@H]5c5ncc(-c6cccnc6)[nH]5)CC[C@@]4(C)[C@]3(C)CC[C@H]2C1(C)C (stereo partly drawn) [Compound 32, 2,2-dimethyl-3-((((1R,3aS,5aR,5bR,7aR,9S,11aR,11bR,13aR,13bR)-5a,5b,8,8,11a-pentamethyl-1-(1-methylcyclopropyl)-3a-((S)-2-(5-(pyridin-3-yl)-1H-imidazol-2-yl)pyrrolidine-1-carbonyl)icosahydro-1H-cyclopenta[a]chrysen-9-yl)oxy)carbonyl)cyclobutane-1-carboxylic acid] |  |  |  |  | 100 | 100 |  |  |  |  |
| CC(C)(CC(=O)O[C@H]1CC[C@]2(C)[C@H]3CC[C@@H]4[C@H]5[C@H](C6(C)CC6)CC[C@]5(C(=O)N5CCC[C@H]5c5ncc(-c6ccc(F)cc6)[nH]5)CC[C@@]4(C)[C@]3(C)CC[C@H]2C1(C)C)C(=O)O [Compound 33, 4-(((1R,3aS,5aR,5bR,7aR,9S,11aR,11bR,13aR,13bR)-3a-((S)-2-(5-(4-fluorophenyl)-1H-imidazol-2-yl)pyrrolidine-1-carbonyl)-5a,5b,8,8,11a-pentamethyl-1-(1-methylcyclopropyl)icosahydro-1H-cyclopenta[a]chrysen-9-yl)oxy)-2,2-dimethyl-4-oxobutanoic acid] | 9.5 |  |  |  |  |  | 152 | 88.7 | 4400 | 32.1 |
| C=C(C)[C@@H]1CC[C@]2(C(=O)N3CCC[C@H]3c3ncc(-c4ccc(F)cc4)[nH]3)CC[C@]3(C)[C@H](CC[C@@H]4[C@@]5(C)CC[C@H](OC(=O)CC(C)(C)C(=O)O)C(C)(C)[C@@H]5CC[C@]43C)[C@@H]12 [Compound 34, 4-(((1R,3aS,5aR,5bR,7aR,9S,11aR,11bR,13aR,13bR)-3a-((S)-2-(5-(4-fluorophenyl)-1H-imidazol-2-yl)pyrrolidine-1-carbonyl)-5a,5b,8,8,11a-pentamethyl-1-(prop-1-en-2-yl)icosahydro-1H-cyclopenta[a]chrysen-9-yl)oxy)-2,2-dimethyl-4-oxobutanoic acid] | 17 |  |  |  |  |  | 263 | 224 | 13300 | 16.1 |
| C=C(C)[C@@H]1CC[C@]2(C(=O)N3CCC[C@H]3c3ncc(-c4ccc(O)cc4)[nH]3)CC[C@]3(C)[C@H](CC[C@@H]4[C@@]5(C)CC[C@H](OC(=O)C6CC(C(=O)O)C6(C)C)C(C)(C)[C@@H]5CC[C@]43C)[C@@H]12 (stereo partly drawn) [Compound 36, 3-((((1R,3aS,5aR,5bR,7aR,9S,11aR,11bR,13aR,13bR)-3a-((S)-2-(5-(4-hydroxyphenyl)-1H-imidazol-2-yl)pyrrolidine-1-carbonyl)-5a,5b,8,8,11a-pentamethyl-1-(prop-1-en-2-yl)icosahydro-1H-cyclopenta[a]chrysen-9-yl)oxy)carbonyl)-2,2-dimethylcyclobutane-1-carboxylic acid] |  |  |  |  |  |  | 518 | 334 | 10900 | 30.3 |
| C=C(C)[C@@H]1CC[C@]2(C(=O)N3CCC[C@@H]3c3ncc(-c4ccccc4)[nH]3)CC[C@]3(C)[C@H](CC[C@@H]4[C@@]5(C)CC[C@H](OC(=O)C6CC(C(=O)O)C6(C)C)C(C)(C)[C@@H]5CC[C@]43C)[C@@H]12 (stereo partly drawn) [Compound 41, 2,2-dimethyl-3-((((1R,3aS,5aR,5bR,7aR,9S,11aR,11bR,13aR,13bR)-5a,5b,8,8,11a-pentamethyl-3a-((R)-2-(5-phenyl-1H-imidazol-2-yl)pyrrolidine-1-carbonyl)-1-(prop-1-en-2-yl)icosahydro-1H-cyclopenta[a]chrysen-9-yl)oxy)carbonyl)cyclobutane-1-carboxylic acid] |  |  |  |  | 98 | 99 |  |  |  |  |
